Measured values: PubChem BioAssay AID248 (DTP/NCI, 2004)
Toxic doses and inconclusive results are not listed.

Test system: L1210 leukemia ip in BDF1 mice, survival T/C
Assay: NCI In Vivo Anticancer Drug Screen. Data for tumor model L1210 Leukemia (intraperitoneal) in B6D2F1 (BDF1) mice
Conditions: endpoint: mean survival time, higher = longer survival
In short: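 Transplanted-tumor mice were given test agent; controls received vehicle only. Survival readings from the two groups were divided (treated over control).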

[1] = dose: 50.0 mg/kg/injection, schedule: Q01DX009 (ip), vehicle: saline
[2] = dose: 100.0 mg/kg/injection, schedule: Q01DX009 (ip), vehicle: saline
[3] = dose: 100.0 mg/kg/injection, schedule: Q04DX003 (ip), vehicle: saline
[4] = dose: 200.0 mg/kg/injection, schedule: Q01DX009 (ip), vehicle: saline
[5] = dose: 200.0 mg/kg/injection, schedule: Q04DX003 (ip), vehicle: saline
[6] = dose: 400.0 mg/kg/injection, schedule: Q04DX003 (ip), vehicle: saline
[7] = dose: 100.0 mg/kg/injection, schedule: Q01DX001 (ip), vehicle: saline with Tween-80
[8] = dose: 200.0 mg/kg/injection, schedule: Q01DX001 (ip), vehicle: saline with Tween-80
[9] = dose: 100.0 mg/kg/injection, schedule: Q01DX009 (ip), vehicle: Klucel (hydroxypropylcellulose) (HPC)
[10] = dose: 200.0 mg/kg/injection, schedule: Q01DX009 (ip), vehicle: Klucel (hydroxypropylcellulose) (HPC)
[11] = dose: 100.0 mg/kg/injection, schedule: Q04DX002 (ip), vehicle: saline with Tween-80
[12] = dose: 200.0 mg/kg/injection, schedule: Q04DX002 (ip), vehicle: saline with Tween-80
[13] = dose: 400.0 mg/kg/injection, schedule: Q04DX002 (ip), vehicle: saline with Tween-80
[14] = dose: 100.0 mg/kg/injection, schedule: Q01DX001 (ip), vehicle: Klucel (hydroxypropylcellulose) (HPC)
[15] = dose: 200.0 mg/kg/injection, schedule: Q01DX001 (ip), vehicle: Klucel (hydroxypropylcellulose) (HPC)
[16] = dose: 400.0 mg/kg/injection, schedule: Q01DX001 (ip), vehicle: Klucel (hydroxypropylcellulose) (HPC)
[17] = dose: 25.0 mg/kg/injection, schedule: Q01DX009 (ip), vehicle: other
[18] = dose: 100.0 mg/kg/injection, schedule: Q01DX009 (ip), vehicle: saline with Tween-80
[19] = dose: 200.0 mg/kg/injection, schedule: Q01DX009 (ip), vehicle: saline with Tween-80
[20] = dose: 100.0 mg/kg/injection, schedule: Q04DX002 (ip), vehicle: Klucel (hydroxypropylcellulose) (HPC)
[21] = dose: 12.5 mg/kg/injection, schedule: Q01DX009 (ip), vehicle: saline
[22] = dose: 25.0 mg/kg/injection, schedule: Q01DX009 (ip), vehicle: saline
[23] = dose: 100.0 mg/kg/injection, schedule: Q01DX001 (ip), vehicle: saline
[24] = dose: 200.0 mg/kg/injection, schedule: Q01DX001 (ip), vehicle: saline
[25] = dose: 400.0 mg/kg/injection, schedule: Q01DX001 (ip), vehicle: saline with Tween-80
[26] = dose: 25.0 mg/kg/injection, schedule: Q04DX002 (ip), vehicle: Klucel (hydroxypropylcellulose) (HPC)
[27] = dose: 50.0 mg/kg/injection, schedule: Q04DX002 (ip), vehicle: Klucel (hydroxypropylcellulose) (HPC)
[28] = dose: 400.0 mg/kg/injection, schedule: Q01DX009 (ip), vehicle: saline

CC1=CP(=O)(O)CC1
T/C [1]: 113 % of control
T/C [2]: 103 % of control
T/C [3]: 95 % of control
T/C [4]: 98 % of control
T/C [5]: 93 % of control

CN(C(=O)COc1ccc([N+](=O)[O-])cc1Cl)c1ccc(S(=O)(=O)F)cc1
T/C [3]: 104 % of control
T/C [5]: 95 % of control
T/C [6]: 96 % of control

Cn1cc2ccccc2n1
T/C (dose: 50.0 mg/kg/injection, schedule: Q01DX001 (ip), vehicle: saline with Tween-80): 102 % of control
T/C [7]: 100 % of control
T/C [8]: 102 % of control

CCCCCCCCCC(=O)N/N=C/c1ccccc1O
T/C [9]: 93 % of control
T/C [10]: 101 % of control
T/C (dose: 400.0 mg/kg/injection, schedule: Q01DX009 (ip), vehicle: Klucel (hydroxypropylcellulose) (HPC)): 105 % of control

CSc1ccccc1N=Cc1cc(Cl)ccc1O
T/C [7]: 90 % of control

Oc1cc(Cl)c(Cl)cc1Cl.[Cu+2]
T/C (dose: 12.5 mg/kg/injection, schedule: Q04DX003 (ip), vehicle: gum acacia): 92 % of control
T/C (dose: 25.0 mg/kg/injection, schedule: Q04DX003 (ip), vehicle: gum acacia): 93 % of control

O=C1OC(=O)C2C=CC=CC12 (stereo not given)
T/C [11]: 92 % of control
T/C [12]: 103 % of control
T/C [13]: 95 % of control

CCCCC(=O)N1C(=O)/C(=C\N(C)C)c2cc(C=O)ccc21
T/C [14]: 90 % of control
T/C [15]: 90 % of control
T/C [16]: 93 % of control

O=C(Nc1cccc2ccccc12)OCCF
T/C (dose: 5.0 mg/kg/injection, schedule: Q01DX001 (ip), vehicle: carboxymethylcellulose (CMC)): 101 % of control
T/C (dose: 10.0 mg/kg/injection, schedule: Q01DX001 (ip), vehicle: carboxymethylcellulose (CMC)): 106 % of control
T/C (dose: 20.0 mg/kg/injection, schedule: Q01DX001 (ip), vehicle: carboxymethylcellulose (CMC)): 104 % of control
T/C (dose: 40.0 mg/kg/injection, schedule: Q01DX001 (ip), vehicle: carboxymethylcellulose (CMC)): 104 % of control
T/C (dose: 80.0 mg/kg/injection, schedule: Q01DX001 (ip), vehicle: carboxymethylcellulose (CMC)): 106 % of control

CCC/C=[CH]/[Hg][Cl]
T/C (dose: 6.25 mg/kg/injection, schedule: Q01DX009 (ip), vehicle: other): 93 % of control
T/C (dose: 6.25 mg/kg/injection, schedule: Q04DX003 (ip), vehicle: saline sonified): 95 % of control
T/C (dose: 12.5 mg/kg/injection, schedule: Q01DX009 (ip), vehicle: other): 94 % of control
T/C (dose: 12.5 mg/kg/injection, schedule: Q04DX003 (ip), vehicle: saline sonified): 95 % of control
T/C [17]: 97 % of control
T/C (dose: 25.0 mg/kg/injection, schedule: Q04DX003 (ip), vehicle: saline sonified): 106 % of control

Oc1ccc2ccccc2c1/C=N\Nc1ccccn1
T/C [11]: 92 % of control
T/C [12]: 92 % of control
T/C [13]: 89 % of control

C/C(CCc1c[nH]c2ccccc12)=N\O
T/C (dose: 100.0 mg/kg/injection, schedule: Q04DX003 (sc), vehicle: olive oil, sesame oil, peanut oil): 98 % of control
T/C (dose: 200.0 mg/kg/injection, schedule: Q04DX003 (sc), vehicle: olive oil, sesame oil, peanut oil): 98 % of control
T/C (dose: 400.0 mg/kg/injection, schedule: Q04DX003 (sc), vehicle: olive oil, sesame oil, peanut oil): 104 % of control

CCOC(=O)CNC(=O)Nc1ccc(C(=O)O)cc1
T/C [18]: 93 % of control
T/C [19]: 100 % of control

CCC(=O)P(=O)(OC)OC
T/C [3]: 102 % of control
T/C [5]: 102 % of control
T/C [6]: 95 % of control

CCCCCOC(=O)C1OC1(C)c1ccccc1 (stereo not given)
T/C [18]: 98 % of control
T/C [19]: 91 % of control
T/C (dose: 400.0 mg/kg/injection, schedule: Q01DX009 (ip), vehicle: saline with Tween-80): 88 % of control

Cc1ccccc1Nc1nc(N)nc2nc(N)c(C(N)=O)nc12
T/C [20]: 97 % of control
T/C (dose: 200.0 mg/kg/injection, schedule: Q04DX002 (ip), vehicle: Klucel (hydroxypropylcellulose) (HPC)): 92 % of control
T/C (dose: 400.0 mg/kg/injection, schedule: Q04DX002 (ip), vehicle: Klucel (hydroxypropylcellulose) (HPC)): 92 % of control

O=C(C(F)(F)F)C(F)(F)F
T/C (dose: 6.25 mg/kg/injection, schedule: Q01DX009 (ip), vehicle: saline): 95 % of control
T/C [21]: 98 % of control
T/C [22]: 114 % of control
T/C [2]: 88 % of control

NC(CSCc1ccccc1)(CSCc1ccccc1)C(=O)O
T/C [17]: 107 % of control
T/C (dose: 50.0 mg/kg/injection, schedule: Q01DX009 (ip), vehicle: other): 105 % of control
T/C (dose: 100.0 mg/kg/injection, schedule: Q01DX009 (ip), vehicle: other): 100 % of control
T/C (dose: 200.0 mg/kg/injection, schedule: Q01DX009 (ip), vehicle: other): 91 % of control
T/C (dose: 400.0 mg/kg/injection, schedule: Q01DX009 (ip), vehicle: other): 113 % of control

CCOC(=O)c1cnc(C)[nH]c1=O
T/C [21]: 100 % of control
T/C [22]: 99 % of control
T/C [1]: 94 % of control
T/C [23]: 108 % of control
T/C [2]: 101 % of control
T/C [24]: 101 % of control

CC1(C)N=C(N)N=C(N)N1c1ccc(CCc2ccc(Cl)cc2S(=O)(=O)F)c(Cl)c1
T/C [7]: 91 % of control
T/C [8]: 94 % of control
T/C [25]: 97 % of control

C=CCc1ccc(OCCOCCN(C/C=C(\C)CCC=C(C)C)C/C=C(\C)CCC=C(C)C)c(OC)c1
T/C [26]: 108 % of control
T/C [27]: 96 % of control
T/C [20]: 99 % of control

Nc1ccc(Sc2ccc(N)cc2)cc1
T/C (dose: 12.5 mg/kg/injection, schedule: Q04DX002 (ip), vehicle: Klucel (hydroxypropylcellulose) (HPC)): 106 % of control
T/C [26]: 116 % of control
T/C [27]: 106 % of control
T/C [20]: 103 % of control

CCOc1ccc(N=Nc2c(O)n(-c3ccccc3)c(=S)n(-c3ccccc3)c2=O)cc1
T/C [14]: 96 % of control
T/C [15]: 107 % of control
T/C [16]: 100 % of control

CC(=O)n1c2ccccc2c2ccccc21
T/C (dose: 100.0 mg/kg/injection, schedule: Q04DX002 (ip), vehicle: gum acacia): 95 % of control
T/C (dose: 200.0 mg/kg/injection, schedule: Q04DX002 (ip), vehicle: gum acacia): 88 % of control
T/C (dose: 400.0 mg/kg/injection, schedule: Q04DX002 (ip), vehicle: gum acacia): 100 % of control

O=C(c1cccc(F)c1)C(F)(F)F
T/C [9]: 96 % of control
T/C [10]: 104 % of control
T/C (dose: 300.0 mg/kg/injection, schedule: Q01DX009 (ip), vehicle: Klucel (hydroxypropylcellulose) (HPC)): 93 % of control

O=C1CCSC(=S)N1c1ccc(Cl)c(Cl)c1
T/C (dose: 25.0 mg/kg/injection, schedule: Q04DX003 (ip), vehicle: saline with Tween-80): 101 % of control
T/C (dose: 50.0 mg/kg/injection, schedule: Q04DX003 (ip), vehicle: saline with Tween-80): 101 % of control
T/C (dose: 100.0 mg/kg/injection, schedule: Q04DX003 (ip), vehicle: saline with Tween-80): 104 % of control

Clc1ncnc2c1ncn2C1CCCO1 (stereo not given)
T/C [23]: 97 % of control
T/C (dose: 178.0 mg/kg/injection, schedule: Q01DX009 (ip), vehicle: saline): 113 % of control
T/C [24]: 96 % of control
T/C (dose: 267.0 mg/kg/injection, schedule: Q01DX009 (ip), vehicle: saline): 113 % of control
T/C (dose: 400.0 mg/kg/injection, schedule: Q01DX001 (ip), vehicle: saline): 112 % of control
T/C [28]: 154 % of control

O=C(O)c1ccc(OCc2ccccc2)c(Br)c1
T/C [7]: 97 % of control
T/C [8]: 104 % of control
T/C [25]: 98 % of control

COC(=N)C/C=C/CC(=N)OC
T/C [2]: 94 % of control
T/C [4]: 94 % of control
T/C [28]: 92 % of control
